# Where two headings read alike, the source gives them in different places.
# Assays:
# [1] = ADME solubility determination at pH 2.0 and pH 7.4; assay type: physicochemical; conditions: aqueous buffer, thermodynamic from solid, LC-MS/MS
# Method: Certain Compounds of the Disclosure were assessed for ADME solubility at pH 2.0 and pH 7.4.
# Stock solutions were prepared by adding each compound to DMSO at a concentration of 10 mM. Samples were prepared by adding 50 μL of each stock solution to separate vials. The vials were loaded onto a 96-well rack and dried. 500 μL of Phosphate Buffered Saline (PBS) pH 7.4 or PBS pH 2.0 were added into each vial. The vials were then shaken at 25° C. and 1,100 rpm for 24 hours.
# After 24 hours, the vials were centrifuged at 3220 G and 25° C. for 30 minutes. The supernatant fluid was analyzed by LC-MS/MS against a standard of known concentration. The solubility of each sample was then calculated using the equation below:
# [formula] where DF is the dilution factor.
# [2] = Liver microsomal stability, human liver microsomes; assay type: in vitro ADME; conditions: 1 μM compound, NADPH, read-out: t1/2 (min) in HLM
# Method: (§1) Certain Compounds of the Disclosure were assessed for ADME metabolic stability in human liver microsomes (HLM) and rat liver microsomes (RLM).
# (§2) Samples were prepared by adding 222.5 μL of a master solution (100 mM phosphate buffer and 1 mg/mL liver microsomes (HLM or RLM)) and 25 μL of a 10 mM NADPH solution to incubation plates, which were then warmed for 10 min. Each compound was separately dissolved in DMSO to prepare 10 mM stock solutions, which were then diluted to 100 μM with acetonitrile. A reaction was started by adding 2.5 μL of the 100 μM solution of each compound to separate incubation plates such that the final concentration of for each compound in each plate was 1 μM.
# (§3) 25 μL aliquots of each sample were taken at 0.5, 5, 10, 15, 20 and 30 minutes, and the reaction was stopped by adding 5 volumes of cold acetonitrile with IS (100 nM alprazolam, 200 nM caffeine and 100 nM tolbutamide). The samples were then centrifuged at 3,220 G for 30 minutes, and 100 μL of the supernatant fluid was mixed with 100 μL of ultra-pure H2O.
# (§4) The samples were then analyzed by LC-MS/MS. Peak areas were determined from extracted ion chromatograms. Slope values (k) were determined by linear regression of the natural logarithm of the remaining percentage of the compound vs. incubation time curve. […] The in vitro half-life (min) was converted into the in vitro intrinsic clearance (in vitro CLint, in μL/min/mg protein) using the following equation: […]
# [3] = Liver microsomal stability, rat liver microsomes; assay type: in vitro ADME; conditions: 1 μM compound, NADPH, read-out: t1/2 (min) in RLM
# Method: as §1, §2, §3, §4
# [4] = PBS pH 2.0, shaken at 25° C. for 24 hours, read-out: Solubility at pH 2.0
# [5] = PBS pH 7.4, shaken at 25° C. for 24 hours, read-out: Solubility at pH 7.4
SMILES,"solubility at 24 h [1, 4] [µM]","solubility at 24 h [1, 5] [µM]",half-life at 1 μM [2] [min],half-life at 1 μM [3] [min]
COc1ncnc(C(C)(C)C)c1-c1ncc2cnn(Cc3ccc(-c4nc(C(F)(F)F)cn4C)cc3)c2n1 [Example 109],< 10,< 10,< 25,< 25
COc1ncnc(C2CC2)c1-c1ncc2cnn(Cc3ccc(-c4nc(C(F)(F)F)oc4C)cc3)c2n1 [Example 127],< 10,< 10,> 25,> 25
COc1ncnc(C2(C)CC2)c1-c1ncc2cnn(Cc3ccc(-c4nc(C(F)(F)F)cn4C)cc3)c2n1 [Example 104],> 10,> 10,< 25,< 25
"COc1ncnc(C2CC2)c1-c1ncc2nnn(Cc3ccc(-c4nc(C(F)(F)F)cn4C)cc3)c2n1 [Example 215, 5-(4-cyclopropyl-6-methoxypyrimidin-5-yl)-3-(4-(1-methyl-4-(trifluoromethyl)-1H-imidazol-2-yl)benzyl)-3H-[1,2,3]triazolo[4,5-d]pyrimidine]",> 10,> 10,> 25,< 25
"COCC(C)n1cc(C(F)(F)F)nc1-c1ccc(Cn2ncc3cnc(-c4c(OC)ncnc4C4CC4)nc32)cc1 (centres unmarked) [Example 150, 6-(4-cyclopropyl-6-methoxypyrimidin-5-yl)-1-(4-(1-(1-methoxypropan-2-yl)-4-(trifluoromethyl)-1H-imidazol-2-yl)benzyl)-1H-pyrazolo[3,4-d]pyrimidine]",> 10,> 10,< 25,< 25
"CCn1cc(C(F)(F)F)nc1-c1ccc([C@H](C)n2ncc3cnc(-c4c(OC)ncnc4C4CCC4)nc32)cc1 (single isomer, unassigned) [Example 99]",> 10,< 10,< 25,< 25
"CCc1nc2cnc(-c3c(OC)ncnc3C3CC3)nc2n1Cc1ccc(-n2nc(C(F)(F)F)cc2C)cc1 [Example 209, 2-(4-cyclopropyl-6-methoxypyrimidin-5-yl)-8-ethyl-9-(4-(5-methyl-3-(trifluoromethyl)-1H-pyrazol-1-yl)benzyl)-9H-purine]",> 10,> 10,< 25,> 25
COc1ncnc(C2CC2)c1-c1ncc2cnn(Cc3ccc(-n4nc(C(F)(F)F)cc4N(C)C)c(F)c3)c2n1 [Example 122],< 10,< 10,< 25,< 25
COc1ncnc(C2CC2)c1-c1ncc2cnn(Cc3ccc(-c4nc(C(F)(F)F)c(Br)n4C)cc3)c2n1 [Example 163],< 10,< 10,> 25,> 25
COc1ncnc(C2CC2)c1-c1ncc2cnn(Cc3ccc(-n4nc(C(F)F)cc4N(C)C)cc3)c2n1 [Example 123],< 10,< 10,< 25,< 25
CCOc1ncnc(OC)c1-c1ncc2cnn(Cc3ccc(-c4nc(C(F)(F)F)cn4CC)cc3)c2n1 [Example 113],> 10,> 10,> 25,< 25
COc1ncnc(C2CC2)c1-c1ncc2cnn(Cc3ccc(-c4nc(C(F)(F)F)cn4CCF)cc3)c2n1 [Example 137],> 10,> 10,> 25,> 25
COc1ncnc(C2CC2)c1-c1ncc2nc(C3CC3)n(Cc3ccc(-n4nc(C(F)(F)F)cc4C)cc3)c2n1 [Example 213],< 10,< 10,> 25,> 25
CCn1cc(C(F)(F)F)nc1-c1ccc(Cn2nc(OC3CCC3)c3cnc(-c4c(OC)ncnc4C4CC4)nc32)cc1 [Example 184],< 10,< 10,< 25,< 25
"CCn1cc(C(F)(F)F)nc1-c1ccc(Cn2nc(C)c3cnc(-c4c(OC)ncnc4C4CC4)nc32)cc1 [Example 187, 6-(4-cyclopropyl-6-methoxypyrimidin-5-yl)-1-(4-(1-ethyl-4-(trifluoromethyl)-1H-imidazol-2-yl)benzyl)-3-methyl-1H-pyrazolo[3,4-d]pyrimidine]",< 10,< 10,> 25,< 25
"CCn1c(-c2ccc(Cn3ncc4cnc(-c5c(OC)ncnc5C5CC5)nc43)cc2)nc(C(F)(F)F)c1OC [Example 164, 6-(4-cyclopropyl-6-methoxypyrimidin-5-yl)-1-(4-(1-ethyl-5-methoxy-4-(trifluoromethyl)-1H-imidazol-2-yl)benzyl)-1H-pyrazolo[3,4-d]pyrimidine]",> 10,< 10,< 25,< 25
COc1ncnc(C2CC2)c1-c1ncc2nc(C(C)C)n(Cc3ccc(-c4nc(C(F)(F)F)cn4C(C)C)cc3)c2n1 [Example 208],< 10,< 10,> 25,> 25
CCn1c(-c2ccc(Cn3nc(OC)c4cnc(-c5c(OC)ncnc5C5CC5)nc43)cc2)nc(C(F)(F)F)c1Br [Example 189],< 10,< 10,> 25,> 25
COc1ncnc(C2CC2)c1-c1ncc2cnn(Cc3ccc(-c4csc(C(F)(F)F)n4)cc3)c2n1 [Example 126],< 10,< 10,–,–

# Continued, values first:
"solubility at 24 h [1, 4] [µM]","solubility at 24 h [1, 5] [µM]",half-life at 1 μM [2] [min],half-life at 1 μM [3] [min],SMILES
< 10,< 10,< 25,< 25,CSc1cccc(C)c1-c1ncc2cnn(Cc3ccc(-c4nc(C(F)(F)F)cn4C)cc3)c2n1 [Example 21]
> 10,< 10,> 25,> 25,"Cn1cc(C(F)(F)F)nc1-c1ccc(Cn2ncc3cnc(-c4ccccc4S(C)(=O)=O)nc32)cc1 [Example 3, 1-(4-(1-methyl-4-(trifluoromethyl)-1H-imidazol-2-yl)benzyl)-6-(2-(methylsulfonyl)-phenyl)-1H-pyrazolo[3,4-d]pyrimidine]"
< 10,< 10,> 25,> 25,"COc1ncnc(C2CC2)c1-c1ncc2cnn(Cc3ccc(-n4nc(C(F)(F)F)cc4CO)cc3)c2n1 [Example 198, (1-(4-((6-(4-cyclopropyl-6-methoxypyrimidin-5-yl)-1H-pyrazolo[3,4-d]pyrimidin-1-yl)methyl)phenyl)-3-(trifluoromethyl)-1H-pyrazol-5-yl)methanol]"
> 10,> 10,< 25,< 25,"COc1cccc(C2CC2)c1-c1ncc2cnn(Cc3ccc(-c4nc(C(F)(F)F)cn4C)cc3)c2n1 [Example 11, 6-(2-cyclopropyl-6-methoxyphenyl)-1-(4-(1-methyl-4-(trifluoromethyl)-1H-imidazol-2-yl)benzyl)-1H-pyrazolo[3,4-d]pyrimidine]"
> 10,< 10,> 25,> 25,COc1ncnc(C)c1-c1ncc2cnn(Cc3ccc(-n4nc(C(F)(F)F)cc4C)cc3)c2n1 [Example 48]
< 10,< 10,< 25,< 25,COc1ncnc(C2CC2)c1-c1ncc2cnn(Cc3ccc(-n4nc(C(F)(F)F)cc4SC)cc3)c2n1 [Example 38]
< 10,< 10,> 25,< 25,Cc1cc(C(F)(F)F)nn1-c1ccc(Cn2ncc3cnc(-c4ccccc4C(C)C)nc32)cc1 [Example 23]
> 10,< 10,< 25,< 25,Cc1cc(C(F)F)nn1-c1ccc(Cn2ncc3cnc(-c4cccnc4C(C)C)nc32)cc1 [Example 32]
< 10,< 10,< 25,< 25,COc1ncnc(C2CC2)c1-c1ncc2cnn(Cc3ccc(-n4nc(C(F)(F)F)cc4N(C)C)cc3)c2n1 [Example 121]

# Source: US11485736B2 (KSQ Therapeutics, Inc., priority 2018, dated 2022)
